Key:
Assay type in all cases: in vivo
Nilaparvata lugens [1] = experiment: Activity against Nilaparvata lugens (spray on rice plants); conditions: 504 h, 400 ppm spray on rice plants, larvae in stages 2 and 3, evaluated after 21 days, read-out: percentage reduction in population (% activity)
Experimental: Rice plants are treated with a spray mixture prepared with an aqueous emulsion and comprising 400 ppm of the active ingredient. After the spray coating has dried on, the rice plants are populated with plant hopper larvae in stages 2 and 3. The test is evaluated after 21 days. The percentage reduction in population (% activity) is determined by comparing the number of surviving plant hoppers on the treated plants with the number of plant hoppers on the untreated plants. […] An activity of over 80% is shown, in particular, by compound Nos. 1.01, 2.01 to 2.03, 2.07, 2.08, 2.10 to 2.16, 2.20, 2.22, 2.23, 2.26, 3.01, 4.01 to 4.06, 4.20, 5.01 to 5.06, 5.08, 5.10 to 5.12, 5.15, 5.16 and 5.20 to 5.25.

[2] = system: Heliothis virescens caterpillars; experiment: Activity against Heliothis virescens caterpillars; conditions: 144 h, 400 ppm spray on young soybean plants, first larval stage, evaluated after 6 days, read-out: percentage reduction in population or in feeding damage (% activity)
Experimental: (§1) Young soybean plants are sprayed with a spray mixture prepared with an aqueous emulsion and comprising 400 ppm of the active ingredient. After the spray coating has dried on, the soybean plants are populated with 10 Heliothis virescens in the first larval stage and placed into a plastic container. The test is evaluated after 6 days. The percentage reduction in population, or the percentage reduction in feeding damage (% activity), is determined by comparing the number of dead caterpillars and the feeding damage on the treated plants with those on the untreated plants.

Heliothis virescens = experiment: Ovicidal/larvicidal activity on Heliothis virescens; conditions: 192 h, 400 ppm spray on eggs deposited on cotton, evaluated after 8 days, read-out: % reduction in population (hatching percentage of eggs and survival rate of caterpillars)
Experimental: Heliothis eggs which have been deposited on cotton are sprayed with a spray mixture prepared with an aqueous emulsion and comprising 400 ppm of the active ingredient. After 8 days, the hatching percentage of the eggs and the survival rate of the caterpillars are evaluated by comparing them with untreated control batches (% reduction in population).

Aphis craccivora = experiment: Activity against Aphis craccivora; conditions: 400 ppm spray on pea seedlings, 20° C., evaluated after 3 and 6 days, read-out: percentage reduction in population (% activity)
Experimental: Pea seedlings are infected with Aphis craccivora, subsequently sprayed with a spray mixture comprising 400 ppm of the active ingredient, and incubated at 20° C. The test is evaluated after 3 and 6 days. The percentage reduction in population (% activity) is determined by comparing the number of dead aphids on the treated plants with those on the untreated plants.

Nilaparvata lugens [3] = experiment: Systemic activity against Nilaparvata lugens; conditions: 144 h, pots with rice plants in 400 ppm aqueous emulsion solution, larvae in stages 2 and 3, evaluated 6 days later, read-out: percentage reduction in population (% activity)
Experimental: (§2) Pots containing rice plants are placed into an aqueous emulsion solution comprising 400 ppm of the active ingredient. The rice plants are subsequently populated with larvae in stages 2 and 3. The test is evaluated 6 days later. The percentage reduction in population (% activity) is determined by comparing the numbers of plant hoppers on the treated plants with those on the untreated plants.

Ctenocephalides felis = experiment: Activity against Ctenocephalides felis; conditions: 504 h, 100 ppm in flea larvae nutrient medium, flea eggs, checked after 21 days
Experimental: 20 to 25 flea eggs are placed into a horizontally positioned 50 ml tissue culture flask into which 15 g of flea larvae nutrient medium comprising 100 ppm of the active ingredient to be tested have previously been introduced. The test flasks are incubated in an incubator at 26° to 27° C. and an atmospheric humidity of 60-70%. After 21 days, the flasks are checked for the presence of adult fleas, unhatched pupae and larvae.

[4] = system: Panonychus ulmi (OP- and carb.- resistant); experiment: Activity against Panonychus ulmi (OP- and carb.- resistant); conditions: 336 h, 400 ppm spray on apple seedlings, evaluated after 14 days, read-out: percentage reduction in population (% activity)
Experimental: Apple seedlings are populated with adult females of Panonychus ulmi. After seven days, the infested plants are sprayed to drip point with an aqueous emulsion comprising 400 ppm of the test compound and grown in the greenhouse. The test is evaluated after 14 days. The percentage reduction in population (% activity) is determined by comparing the number of dead spider mites on the treated plants with those on the untreated plants. […] An activity of over 80% is shown, in particular, by compound Nos. 1.01, 2.01, 2.07, 2.08, 2.10, 2.12 to 2.16, 2.22, 2.23, 2.26, 3.01, 4.01, 4.02, 4.06, 5.01 to 5.03, 5.05, 5.06, 5.08, 5.10, 5.11, 5.15, 5.16 and 5.20 to 5.25.

Bemisia tabaci = experiment: Activity against Bemisia tabaci; conditions: 336 h, 400 ppm spray on dwarf bean plants with nymphs, evaluated 14 days after application, read-out: activity (hatching percentages vs untreated control)
Experimental: Dwarf bean plants are placed into gauze cages and populated with adult Bemisia tabaci specimens (white fly). After oviposition has taken place, all adults are removed and, 10 days later, the plants with the nymphs located thereon are treated with a spray mixture of the active ingredients to be tested (concentration 400 ppm), which has been prepared with an aqueous emulsion. The test is evaluated for hatching percentages 14 days after the active ingredient has been applied by comparison with the untreated control batches. […] An activity of over 80% is shown, in particular, by compound Nos. 1.01, 2.01 to 2.08, 2.10 to 2.16, 2.22, 2.23, 3.01, 4.01, 4.02, 4.05, 4.06, 5.02, 5.03, 5.06 to 5.08, 5.10, 5.11, 5.20, 5.21 and 6.09.

Tetranychus urticae = experiment: Activity against Tetranychus urticae; conditions: 144 h, 400 ppm spray on young bean plants, mixed population, 6 days at 25° C, read-out: percentage reduction in population (% activity)
Experimental: Young bean plants are populated with a mixed population of Tetranychus urticae and, after 1 day, sprayed with a spray mixture prepared with an aqueous emulsion and comprising 400 ppm of the active ingredient. The plants are subsequently incubated for 6 days at 25° C and then evaluated. The percentage reduction in population (% activity) is determined by comparing the number of dead eggs, larvae and adults on the treated plants with those on the untreated ones.

Nephotettix cincticeps [5] = experiment: Activity against Nephotettix cincticeps (spray on rice plants); conditions: 504 h, 400 ppm spray on rice plants, larvae in stages 2 and 3, evaluated 21 days later, read-out: percentage reduction in population (% activity)
Experimental: Rice plants are treated with a spray mixture prepared with an aqueous emulsion and comprising 400 ppm of the active ingredient. After the spray coating has dried on, the rice plants are populated with leaf hopper larvae in stages 2 and 3. The test is evaluated 21 days later. The percentage reduction in population (% activity) is determined by comparing the number of surviving leaf hoppers on the treated plants with those on the untreated plants.

Nephotettix cincticeps [6] = experiment: Systemic activity against Nephotettix cincticeps; conditions: 144 h, pots with rice plants in 400 ppm aqueous emulsion solution, larvae in stages 2 and 3, evaluated after 6 days, read-out: percentage reduction in population (% activity)
Experimental: as §2, with “evaluated after” for “evaluated”, “6 days.” for “6 days later.”, “the number” for “the numbers”, “of leaf” for “of plant”

Dermanyssus gallinae = experiment: Activity against Dermanyssus gallinae; conditions: 72 h, 10 ppm solution, mites in different development stages, after 3 days
Experimental: 2 to 3 ml of a solution comprising 10 ppm of active ingredient and approximately 200 mites in different development stages are placed into a glass container which is open at the top. The container is then sealed with a cottonwool ball, shaken for 10 minutes until the mites are wetted completely, and then briefly turned over so that the remaining test solution can be absorbed by the cottonwool. After 3 days, the mortality of the mites is determined by counting the dead individuals; it is given as a percentage.

adult Anthonomus grandis = experiment: Activity against adult Anthonomus grandis; conditions: 72 h, 400 ppm spray on young cotton plants, adults, evaluated after 3 days, read-out: percentage reduction in population or in feeding damage (% activity)
Experimental: as §1, with “cotton” for “soybean”, “adult Anthonomus grandis” for “Heliothis virescens in the first larval stage”, “3” for “6”, “beetles” for “caterpillars”

[7] = system: Crocidolomia binotalis caterpillars; experiment: Activity against Crocidolomia binotalis caterpillars; conditions: Brassica oleracea, 72 h; 400 ppm spray on young cabbage plants, third larval stage, evaluated after 3 days; read-out: percentage reduction in population or in feeding damage (% activity)
Experimental: as §1, with “cabbage” for “soybean”, “infested” for “populated”, “Crocidolomia binotalis” for “Heliothis virescens”, “third” for “first”, “3” for “6”

O=C(CCCC=C(F)F)OCCOc1ccc(OC(=O)c2ccccc2)cc1 [Compound 2.22]
> 80%: activity at 400 ppm (Nilaparvata lugens [1]) | activity at 400 ppm [2] | pest or weed control at 400 ppm (Heliothis virescens) | activity at 400 ppm (Aphis craccivora) | activity at 400 ppm (Nilaparvata lugens [3]) | pest or weed control at 100 ppm (Ctenocephalides felis) | activity at 400 ppm [4] | pest or weed control at 400 ppm (Bemisia tabaci) | activity at 400 ppm (Tetranychus urticae)

O=C(CCCC=C(F)F)OCCOc1ccc(OC(=O)Oc2ccccc2)cc1 [Compound 2.23]
> 80%: activity at 400 ppm (Nilaparvata lugens [1]) | activity at 400 ppm [2] | pest or weed control at 400 ppm (Heliothis virescens) | activity at 400 ppm (Aphis craccivora) | activity at 400 ppm (Nilaparvata lugens [3]) | pest or weed control at 100 ppm (Ctenocephalides felis) | activity at 400 ppm (Nephotettix cincticeps [5]) | activity at 400 ppm [4] | pest or weed control at 400 ppm (Bemisia tabaci) | activity at 400 ppm (Tetranychus urticae)

O=C(CCCCCCCC=C(F)F)OCCOc1ccc(Oc2ccccc2)cc1 [Compound 4.01]
> 80%: activity at 400 ppm (Nephotettix cincticeps [6]) | activity at 400 ppm [2] | activity at 400 ppm (Nephotettix cincticeps [5]) | mortality at 10 ppm (Dermanyssus gallinae) | activity at 400 ppm [4] | pest or weed control at 400 ppm (Bemisia tabaci)

O=C(CCCCCCCC=C(F)F)OCCOc1ccc(Sc2ccccc2)cc1 [Compound 4.02]
> 80%: activity at 400 ppm (Nephotettix cincticeps [6]) | activity at 400 ppm [2] | activity at 400 ppm (Nephotettix cincticeps [5]) | mortality at 10 ppm (Dermanyssus gallinae) | activity at 400 ppm [4] | pest or weed control at 400 ppm (Bemisia tabaci)

CC(COC(=O)CCCCCCCC=C(F)F)Oc1ccc(Oc2ccccc2)cc1 (centres unmarked) [Compound 4.06]
> 80%: activity at 400 ppm (Nephotettix cincticeps [6]) | activity at 400 ppm [2] | activity at 400 ppm (Nephotettix cincticeps [5]) | mortality at 10 ppm (Dermanyssus gallinae) | activity at 400 ppm [4] | pest or weed control at 400 ppm (Bemisia tabaci)

O=C(CCCCCCCCCC=C(F)F)OCCOc1ccc(Oc2ccccc2)cc1 [Compound 5.01]
> 80%: activity at 400 ppm (adult Anthonomus grandis) | activity at 400 ppm [7]

O=C(CCCCCCCCCC=C(F)F)OCCOc1ccc(Sc2ccccc2)cc1 [Compound 5.02]
> 80%: activity at 400 ppm (adult Anthonomus grandis) | pest or weed control at 400 ppm (Bemisia tabaci) | activity at 400 ppm [7]

O=C(CCCCCCCCCC=C(F)F)OCCOc1ccc(OCc2ccccc2)cc1 [Compound 5.05]
> 80%: activity at 400 ppm (adult Anthonomus grandis) | activity at 400 ppm (Aphis craccivora) | activity at 400 ppm (Nephotettix cincticeps [5]) | activity at 400 ppm [4] | activity at 400 ppm [7]

O=C(CCCCCCCCCC=C(F)F)OCCOc1ccc(OCc2cccc(F)c2)cc1 [Compound 5.24]
> 80%: activity at 400 ppm (Nephotettix cincticeps [6]) | activity at 400 ppm [2] | activity at 400 ppm (Nephotettix cincticeps [5])
